Test results reported in patent US8742135B1, “Compound amycolamicin, method for producing the same, and use of the same” (Microbial Chemistry Research Foundation, priority 2009, dated 2014).
In brackets after ≈: the same amount, converted by molar mass.

How the values were obtained:
Assay type in all cases: cell-based
E. coli K-12 = assay: MIC, Muller Hinton agar, multiple dilution method (Test Example 1); conditions: Escherichia coli, K12, Muller Hinton agar medium
Procedure: (§1) According to the standard method of Japanese Society of Chemotherapy, the amycolamicin was measured for antimicrobial spectrum against various microorganisms including drug-resistant bacteria (e.g., methicilline resistant bacteria and vancomycin resistant bacteria) in the Muller Hinton agar medium by the multiple dilution method.

[1] = system: Ent faecium NCTCI12202(VRE); assay: as above; conditions: Enterococcus, Muller Hinton agar medium
Procedure: as §1

[2] = system: Ent. faecalis NCTC12201(VRE); assay: as above; conditions: Enterococcus faecalis, Muller Hinton agar medium
Procedure: as §1

[3] = system: Ent. faecalis NCTC12203(VRE); assay: as above; conditions: Enterococcus faecalis, Muller Hinton agar medium
Procedure: as §1

Ent. faecium JCM 5804 = assay: as above; conditions: Enterococcus faecium, JCM5804, Muller Hinton agar medium
Procedure: as §1

[4] = system: Ent. faecium NCTCI12204(VRE); assay: as above; conditions: Enterococcus faecium, Muller Hinton agar medium
Procedure: as §1

[5] = system: Enterococcus faecalis JCM 5803; assay: as above; conditions: JCM5803, Muller Hinton agar medium
Procedure: as §1

Escherichia coli NIHJ = assay: as above; conditions: Muller Hinton agar medium
Procedure: as §1

[6] = system: Klebsiella pneumoniae PC1602; assay: as above; conditions: Muller Hinton agar medium
Procedure: as §1

S. aureus MRSA No.17 = assay: as above; conditions: Staphylococcus aureus, Muller Hinton agar medium
Procedure: as §1

S. aureus MRSA No.5 = assay: as above; conditions: Staphylococcus aureus, Muller Hinton agar medium
Procedure: as §1

S. aureus MS16526(MRSA) = assay: as above; conditions: Staphylococcus aureus, Muller Hinton agar medium
Procedure: as §1

S. aureus MS9610 = assay: as above; conditions: Staphylococcus aureus, Muller Hinton agar medium
Procedure: as §1

S. aureus Smith = assay: as above; conditions: Staphylococcus aureus, Muller Hinton agar medium
Procedure: as §1

S. aureus TY-04282(MRSA) = assay: as above; conditions: Staphylococcus aureus, Muller Hinton agar medium
Procedure: as §1

[7] = system: Staphylococcus aureus FDA209P; assay: as above; conditions: Muller Hinton agar medium
Procedure: as §1

[8] = system: Streptococcus pneumoniae S-223; assay: MIC, Muller Hinton agar with sheep blood, 5% CO2 (Test Example 2); conditions: S223, Muller Hinton agar + sheep blood 5% by volume
[9] = system: Haemophilus infulenzae IID938; assay: as above; conditions: Muller Hinton agar + sheep blood 5% by volume
H. infulenzae IID985 = assay: as above; conditions: Haemophilus, Muller Hinton agar + sheep blood 5% by volume
H. infulenzae IID986 = assay: as above; conditions: Haemophilus, Muller Hinton agar + sheep blood 5% by volume
H. infulenzae IID987 = assay: as above; conditions: Haemophilus, Muller Hinton agar + sheep blood 5% by volume
H. infulenzae IID988 = assay: as above; conditions: Haemophilus, Muller Hinton agar + sheep blood 5% by volume
H. infulenzae T196 = assay: as above; conditions: Haemophilus, Muller Hinton agar + sheep blood 5% by volume
M. haemolytica N811 = assay: MIC, brain heart infusion agar, multiple dilution method (Test Example 3); conditions: Mannheimia haemolytica, brain heart infusion agar medium
Procedure: (§2) According to the standard method of Japanese Society of Chemotherapy, the amycolamicin was measured for antimicrobial spectrum against bacteria causing pneumonia in domestic livestock in the brain heart infusion agar medium by the multiple dilution method.

[10] = system: Mannheimia haemolytica N791; assay: as above; conditions: brain heart infusion agar medium
Procedure: as §2

P. multocida Kobe = assay: as above; conditions: Pasteurella multocida, brain heart infusion agar medium
Procedure: as §2

P. multocida M-17 = assay: as above; conditions: Pasteurella multocida, M17, brain heart infusion agar medium
Procedure: as §2

P. multocida TS-8 = assay: as above; conditions: Pasteurella multocida, TS8, brain heart infusion agar medium
Procedure: as §2

[11] = system: Pasteurella multocida No. 6; assay: as above; conditions: brain heart infusion agar medium
Procedure: as §2

A. pleuropneumoniae 6H-8 = assay: MIC, Muller Hinton agar with Fields enrichment, 5% CO2 (Test Example 4); conditions: Actinobacillus pleuropneumoniae, 6H8, Muller Hinton agar + Fields enrichment 5% by volume
Procedure: (§3) According to the standard method of Japanese Society of Chemotherapy, the amycolamicin was measured for antimicrobial spectrum against bacteria causing pneumonia in domestic livestock other than those listed in Table 3 in the Muller Hinton agar medium supplemented with Fields enrichment (5% by volume) by the multiple dilution method in an atmosphere of 5% by volume CO2.

A. pleuropneumoniae 7H-3 = assay: as above; conditions: Actinobacillus pleuropneumoniae, 7H3, Muller Hinton agar + Fields enrichment 5% by volume
Procedure: as §3

A. pleuropneumoniae CH-1 = assay: as above; conditions: Actinobacillus pleuropneumoniae, CH1, Muller Hinton agar + Fields enrichment 5% by volume
Procedure: as §3

[12] = system: A. pleuropneumoniae CH-2(H4024); assay: as above; conditions: Actinobacillus pleuropneumoniae, Muller Hinton agar + Fields enrichment 5% by volume
Procedure: as §3

[13] = system: A. pleuropneumoniae HPT-1; assay: as above; conditions: Actinobacillus pleuropneumoniae, HPT1, Muller Hinton agar + Fields enrichment 5% by volume
Procedure: as §3

A. pleuropneumoniae Hi-1 = assay: as above; conditions: Actinobacillus pleuropneumoniae, HI1, Muller Hinton agar + Fields enrichment 5% by volume
Procedure: as §3

A. pleuropneumoniae M-1 = assay: as above; conditions: Actinobacillus pleuropneumoniae, M1, Muller Hinton agar + Fields enrichment 5% by volume
Procedure: as §3

[14] = system: A. pleuropneumoniae O-223; assay: as above; conditions: Actinobacillus pleuropneumoniae, O223, Muller Hinton agar + Fields enrichment 5% by volume
Procedure: as §3

[15] = system: A. pleuropneumoniae SHP-17; assay: as above; conditions: Actinobacillus pleuropneumoniae, SHP17, Muller Hinton agar + Fields enrichment 5% by volume
Procedure: as §3

[16] = system: A. pleuropneumoniae Shop1421; assay: as above; conditions: Actinobacillus pleuropneumoniae, Muller Hinton agar + Fields enrichment 5% by volume
Procedure: as §3

A. pleuropneumoniae YN = assay: as above; conditions: Actinobacillus pleuropneumoniae, Muller Hinton agar + Fields enrichment 5% by volume
Procedure: as §3

[17] = system: Actinobacillus pleuropneumoniae NB001; assay: as above; conditions: Muller Hinton agar + Fields enrichment 5% by volume
Procedure: as §3

[18] = system: Histophilus somni 23N2359; assay: as above; conditions: Muller Hinton agar + Fields enrichment 5% by volume
Procedure: as §3

`C=C1CCC(OC2CC(O)(C(C)NC(=O)c3[nH]c(C)c(Cl)c3Cl)C(O)C(C)O2)C2C=CC(C)C(C(=O)C3=C(O)C(C(C)C)N(C4OC(C)C(OC(N)=O)C(OC(C)=O)C4OC)C3=O)C12` (stereo not drawn) [amycolamicin] gave an MIC (E. coli K-12) of 12.5 µg/mL (≈ 13.3 µM), an MIC [1] of 0.78 µg/mL (≈ 0.83 µM) and an MIC [2] of 0.1 µg/mL (≈ 0.106 µM). The MIC [3] was 0.2 µg/mL (≈ 0.213 µM), the MIC (Ent. faecium JCM 5804) was 0.78 µg/mL (≈ 0.83 µM) and the MIC [4] was 0.78 µg/mL (≈ 0.83 µM). The MIC [5] was 0.2 µg/mL (≈ 0.213 µM), the MIC (Escherichia coli NIHJ) was 12.5 µg/mL (≈ 13.3 µM) and the MIC [6] was 6.25 µg/mL (≈ 6.65 µM). The MIC (S. aureus MRSA No.17) was 0.39 µg/mL (≈ 0.415 µM), the MIC (S. aureus MRSA No.5) was 0.39 µg/mL (≈ 0.415 µM) and the MIC (S. aureus MS16526(MRSA)) was 0.39 µg/mL (≈ 0.415 µM). For the same compound, the MIC (S. aureus MS9610) was 0.39 µg/mL (≈ 0.415 µM), the MIC (S. aureus Smith) was 0.39 µg/mL (≈ 0.415 µM) and the MIC (S. aureus TY-04282(MRSA)) was 0.39 µg/mL (≈ 0.415 µM). For the same compound, the MIC [7] was 0.39 µg/mL (≈ 0.415 µM), the MIC [8] was 0.39 µg/mL and the MIC [9] was 0.78 µg/mL. It also gave an MIC (H. infulenzae IID985) of 0.78 µg/mL, an MIC (H. infulenzae IID986) of 0.78 µg/mL and an MIC (H. infulenzae IID987) of 0.78 µg/mL. The MIC (H. infulenzae IID988) was 0.78 µg/mL, the MIC (H. infulenzae T196) was 0.2 µg/mL and the MIC (M. haemolytica N811) was 0.78 µg/mL (≈ 0.83 µM). For the same compound, the MIC [10] was 0.78 µg/mL (≈ 0.83 µM), the MIC (P. multocida Kobe) was 0.78 µg/mL (≈ 0.83 µM) and the MIC (P. multocida M-17) was 0.78 µg/mL (≈ 0.83 µM). The MIC (P. multocida TS-8) was 0.78 µg/mL (≈ 0.83 µM), the MIC [11] was 1.56 µg/mL (≈ 1.66 µM) and the MIC (A. pleuropneumoniae 6H-8) was 1.56 µg/mL. For the same compound, the MIC (A. pleuropneumoniae 7H-3) was 1.56 µg/mL, the MIC (A. pleuropneumoniae CH-1) was 1.56 µg/mL and the MIC [12] was 1.56 µg/mL. For the same compound, the MIC [13] was 1.56 µg/mL, the MIC (A. pleuropneumoniae Hi-1) was 3.13 µg/mL and the MIC (A. pleuropneumoniae M-1) was 0.78 µg/mL. For the same compound, the MIC [14] was 1.56 µg/mL, the MIC [15] was 1.56 µg/mL and the MIC [16] was 3.13 µg/mL. For the same compound, the MIC (A. pleuropneumoniae YN) was 0.78 µg/mL, the MIC [17] was 1.56 µg/mL and the MIC [18] was 0.2 µg/mL.
